Measured values as given in patent publication US7696383B2 (Solvay Pharmaceuticals B.V., priority 2007, dated 2010).
Marks after values point to notes of the source that are not given here.

What was measured:
[1] = in vivo; conditions: for AUC0→∞: Tend = ∞
Experimental: Proteins in 100 μl plasma were precipitated with acetonitrile, and 5 μl samples of the obtained solutions were analyzed. Complete brains were homogenized and centrifuged, and 10 μl samples of the supernatant were analyzed.
Liquid Chromatography-Tandem Mass Spectrometry (LC-MS/MS) was performed using a Sciex API4000 LC-MS/MS. Samples were quantified using extracted calibration samples, treated the same as the study samples, in the range of 1-5000 ng/ml and 5.0-5000 ng/brain for plasma and brain samples, respectively. Compound peak area was used for quantification. Calibration curves were fitted to the model y=A+Bx+Cx^2 (y is the peak area of the analyte, x is the nominal calibration level in ng/ml (plasma) or ng/g (brain), A is the intercept, B is the slope and C is the description of the curvature). 1/x^2 weighing was used. LC-MS/MS system performance was monitored using a reference solution injected at standard intervals. […] The Lower Limit Of Quantification (LLOQ) was established at 1.00 ng/ml and 5.00 ng/brain, for plasma and brain samples, respectively. Values below the LLOQ were given as best estimate. Reversed phase HPLC was performed using gradient elution by a Hypersil BDS C18 100×4.6 mm 3 μm analytical column, at 45° C. and with a flow of 1.00 ml/min: […]

[2] = system: dopamine, noradrenaline and serotonine reuptake; assay: In vitro pharmacology, summary in words over binding and reuptake inhibition
Experimental: (§1) In vitro affinity for neurotransmitter reuptake sites were either obtained by CEREP (128, rue Danton, 92500 Rueil-Malmaison, France) or at Solvay Pharmaceuticals B. V. (C. J. van Houtenlaan 36, 1381 CP Weesp, The Netherlands), using well documented procedures. Measured were affinities for serotonin (Tatsumi, 1999), norepinephrine (Pacholczyk, 1991) and dopamine reuptake sites (Pristupa, 1994).
(§2) Subsequently, the synaptosomes were exposed to [^3H]-serotonin ([…] final concentration) for 10 min. [^3H]-Serotonine uptake was stopped by filtration with a harvester and the non-incorporated radioactivity was removed by extensive washing. Filter plates with synaptosomes were dehydrated, and the amount of [^3H]-serotonin present was determined by Betaplate liquid scintillation counting.
In vitro functional inhibition of [^3H]-norepinephrine reuptake: male rats (Wistar Hsd/Cpb: WU; 175-200 g) were decapitated, the hypothalamus was rapidly removed and a crude synaptosomal fraction was prepared. […] [^3H]-Norepinephrine uptake was stopped by filtration with a harvester and the non-incorporated radioactivity was removed by an extensive washing programme. The filterplates with synaptosomes were dehydrated and the amount of [^3H]-norepinephrine present was determined by Betaplate liquid scintillation counting. […]

[3] = Reduction of venlafaxine N-oxide in the human colon model TIM2; assay type: in vitro ADME; conditions: within 2 hours after dosing
Experimental: The human colon model TIM2 (TNO Intestinal Model 2): this model is a dynamic model for the human large intestine that simulates in vivo conditions. It is an artificial digestive system that has been validated by many studies (Minekus, 1999).
Suspended in 1% methylcellulose, venlafaxine-N-oxide (1 mg) was inserted into the lumen (120 ml) of the TIM2 model (see above, Minekus, 1999). Samples from the lumen and the dialysate (the latter being a model for the vascular bed of the intestines) were taken at various time intervals, and analyzed for venlafaxine-N-oxide and venlafaxine.

[4] = biological target: T1, [3H]-serotonin reuptake (Rattus norvegicus, UniProt P31652); assay: In vitro functional inhibition of [3H]-serotonin reuptake, cerebral hemisphere synaptosomes; assay type: biochemical
T1 construct: the cerebral hemispheres were rapidly removed, and a P2-synaptosomal fraction was prepared; from tissue; host or cells: rat cerebral hemispheres, P2 synaptosomal fraction
Experimental: as §2

[5] = biological target: norepinephrine reuptake sites (Homo sapiens, UniProt P23975); assay: In vitro affinity for norepinephrine reuptake sites; assay type: binding
[6] = biological target: serotonin reuptake sites (Homo sapiens, UniProt P31645); assay: In vitro affinity for serotonin reuptake sites; assay type: binding
[7] = biological target: T2, [3H]-dopamine reuptake (Rattus norvegicus, UniProt P23977); assay: In vitro functional inhibition of [3H]-dopamine reuptake, striatum synaptosomes; assay type: biochemical
T2 construct: the striatum was rapidly removed and a crude synaptosomal fraction (P2) was prepared; from tissue; host or cells: rat striatum, crude P2 synaptosomal fraction
Experimental: In vitro functional inhibition of [^3H]-dopamine reuptake: male rats (Wistar Hsd/Cpb: WU; 175-200 g) were decapitated; the striatum was rapidly removed and a crude synaptosomal fraction (P2) was prepared by homogenization and centrifugation. Synaptosomes were pre-incubated in absence or presence of the test compound for 15 min at 37° C., in a medium containing the monoamine oxidase inhibitor pargyline (7×10^−6 M) (Coyle, 1969). Subsequently, [^3H]-dopamine (2×10^−7 M final concentration) was added and incubation was continued for 10 min. [^3H]-dopamine uptake was stopped by filtration and the synaptosomes were washed four times with phosphate buffered saline. The amount of [^3H]-dopamine in the synaptosomes was determined by Betaplate liquid scintillation counting. […] Inhibition of DA uptake was performed in duplicate.

[8] = biological target: dopamine reuptake sites (Homo sapiens, UniProt Q01959); assay: In vitro affinity for dopamine reuptake sites; assay type: binding
Description: as §1

[9] = biological target: T3, [3H]-norepinephrine reuptake (Rattus norvegicus, UniProt Q63380); assay: In vitro functional inhibition of [3H]-norepinephrine reuptake, hypothalamus synaptosomes; assay type: biochemical
T3 construct: the hypothalamus was rapidly removed and a crude synaptosomal fraction was prepared; from tissue; host or cells: rat hypothalamus, crude synaptosomal fraction
Experimental: In vitro functional inhibition of [^3H]-norepinephrine reuptake: male rats (Wistar Hsd/Cpb: WU; 175-200 g) were decapitated, the hypothalamus was rapidly removed and a crude synaptosomal fraction was prepared. Synaptosomes were pre-incubated in absence or presence of the test compound for 10 min at 37° C., in a medium containing the MAO inhibitor pargyline (7 μM). Subsequently, the synaptosomes were exposed to [^3H]-norepinephrine ([…] final concentration) for 15 min. [^3H]-Norepinephrine uptake was stopped by filtration with a harvester and the non-incorporated radioactivity was removed by an extensive washing programme. The filterplates with synaptosomes were dehydrated and the amount of [^3H]-norepinephrine present was determined by Betaplate liquid scintillation counting. […] Test compounds, 10^−2 M dissolved in DMSO, were diluted in Krebs Ringer buffer to test concentrations of 10^−8-10^−5 M. Further experimental details were as described (Coyle, 1969).

[10] = male, NMRI, mouse, in vivo, iv, 1 mg/kg
[11] = male, NMRI, mouse, in vivo, po, 10 mg/kg
[12] = male, NMRI, mouse, plasma, iv, 1 mg/kg
[13] = male, NMRI, mouse, plasma, po, 10 mg/kg
[14] = mice, labelled compound given 1.0 mg/kg i.v., 0.5 h
[15] = mice, labelled compound given 1.0 mg/kg i.v., 1 h
[16] = mice, labelled compound given 1.0 mg/kg i.v., 3 h
[17] = mice, labelled compound given 1.0 mg/kg i.v., 7 h
[18] = mice, labelled compound given 1.0 mg/kg i.v., 24 h
[19] = mice, labelled compound given 10 mg/kg p.o., 0.5 h
[20] = mice, labelled compound given 10 mg/kg p.o., 1 h
[21] = mice, labelled compound given 10 mg/kg p.o., 3 h
[22] = mice, labelled compound given 10 mg/kg p.o., 7 h
[23] = mice, labelled compound given 10 mg/kg p.o., 24 h

Chain of serotonin reuptake sites (P31645 whole entry): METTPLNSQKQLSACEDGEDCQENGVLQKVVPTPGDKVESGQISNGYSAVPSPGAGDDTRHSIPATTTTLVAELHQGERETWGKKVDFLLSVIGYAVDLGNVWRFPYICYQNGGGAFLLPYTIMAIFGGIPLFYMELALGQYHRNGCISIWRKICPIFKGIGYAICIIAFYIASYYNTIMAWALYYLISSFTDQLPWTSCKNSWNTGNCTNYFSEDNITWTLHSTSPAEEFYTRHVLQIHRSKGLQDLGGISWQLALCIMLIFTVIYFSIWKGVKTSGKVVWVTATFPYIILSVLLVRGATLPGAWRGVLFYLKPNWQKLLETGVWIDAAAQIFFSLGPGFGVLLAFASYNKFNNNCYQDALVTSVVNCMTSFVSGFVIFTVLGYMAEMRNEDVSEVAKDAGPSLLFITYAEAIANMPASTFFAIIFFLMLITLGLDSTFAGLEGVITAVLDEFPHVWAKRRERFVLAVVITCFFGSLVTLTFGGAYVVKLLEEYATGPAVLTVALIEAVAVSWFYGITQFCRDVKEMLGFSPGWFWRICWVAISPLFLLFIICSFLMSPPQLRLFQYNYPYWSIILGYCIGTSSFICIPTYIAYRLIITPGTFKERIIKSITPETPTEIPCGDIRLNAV
T2 sequence (P23977 whole entry): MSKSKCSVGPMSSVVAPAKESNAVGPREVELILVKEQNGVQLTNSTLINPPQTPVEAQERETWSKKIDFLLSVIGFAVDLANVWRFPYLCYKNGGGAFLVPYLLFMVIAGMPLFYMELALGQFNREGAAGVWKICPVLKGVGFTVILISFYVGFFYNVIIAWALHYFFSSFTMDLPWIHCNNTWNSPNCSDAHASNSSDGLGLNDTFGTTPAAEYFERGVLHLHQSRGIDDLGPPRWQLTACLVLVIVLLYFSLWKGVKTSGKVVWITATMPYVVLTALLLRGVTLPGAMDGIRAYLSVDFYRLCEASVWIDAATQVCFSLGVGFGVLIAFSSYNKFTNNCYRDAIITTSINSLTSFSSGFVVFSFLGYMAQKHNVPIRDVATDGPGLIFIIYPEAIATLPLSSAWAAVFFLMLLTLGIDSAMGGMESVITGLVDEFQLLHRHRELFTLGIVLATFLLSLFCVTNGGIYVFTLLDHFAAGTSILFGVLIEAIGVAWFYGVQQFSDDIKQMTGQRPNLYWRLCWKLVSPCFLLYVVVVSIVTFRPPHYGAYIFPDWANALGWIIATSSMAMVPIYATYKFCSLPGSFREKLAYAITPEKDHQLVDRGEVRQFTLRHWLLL
Chain of dopamine reuptake sites (Q01959 whole entry): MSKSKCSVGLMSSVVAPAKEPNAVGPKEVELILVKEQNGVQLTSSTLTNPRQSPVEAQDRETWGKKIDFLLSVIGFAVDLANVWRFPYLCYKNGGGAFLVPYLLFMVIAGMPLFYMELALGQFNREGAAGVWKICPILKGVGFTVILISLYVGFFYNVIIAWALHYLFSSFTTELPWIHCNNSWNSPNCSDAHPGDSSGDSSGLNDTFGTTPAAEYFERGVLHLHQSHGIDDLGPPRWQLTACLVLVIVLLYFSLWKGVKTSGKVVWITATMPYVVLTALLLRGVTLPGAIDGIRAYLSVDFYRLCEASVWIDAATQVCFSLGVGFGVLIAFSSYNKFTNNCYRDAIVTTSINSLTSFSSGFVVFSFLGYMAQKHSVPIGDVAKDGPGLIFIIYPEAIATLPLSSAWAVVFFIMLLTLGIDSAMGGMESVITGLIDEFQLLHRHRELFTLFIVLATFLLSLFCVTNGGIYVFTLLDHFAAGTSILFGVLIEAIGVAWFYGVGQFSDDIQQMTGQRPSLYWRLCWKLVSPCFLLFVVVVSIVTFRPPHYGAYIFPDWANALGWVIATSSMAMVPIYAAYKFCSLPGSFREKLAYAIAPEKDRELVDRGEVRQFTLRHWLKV
T1 sequence (P31652 whole entry): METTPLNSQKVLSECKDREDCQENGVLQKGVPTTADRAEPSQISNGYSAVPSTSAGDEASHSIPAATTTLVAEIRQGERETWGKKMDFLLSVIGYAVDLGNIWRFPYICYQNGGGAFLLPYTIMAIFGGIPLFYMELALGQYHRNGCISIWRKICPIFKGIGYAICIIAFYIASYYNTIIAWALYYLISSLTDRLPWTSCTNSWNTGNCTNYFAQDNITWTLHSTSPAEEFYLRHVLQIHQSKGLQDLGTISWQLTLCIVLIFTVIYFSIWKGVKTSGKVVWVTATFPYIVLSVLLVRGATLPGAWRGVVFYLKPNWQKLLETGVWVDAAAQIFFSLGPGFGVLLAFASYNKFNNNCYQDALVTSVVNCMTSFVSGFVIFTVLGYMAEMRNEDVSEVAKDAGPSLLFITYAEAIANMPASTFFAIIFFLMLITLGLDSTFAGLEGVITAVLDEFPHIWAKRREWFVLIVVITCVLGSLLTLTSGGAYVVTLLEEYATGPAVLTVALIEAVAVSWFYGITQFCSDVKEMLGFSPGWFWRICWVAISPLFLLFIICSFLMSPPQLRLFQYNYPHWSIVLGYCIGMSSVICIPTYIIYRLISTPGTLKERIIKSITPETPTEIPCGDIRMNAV
Chain of norepinephrine reuptake sites (P23975 whole entry): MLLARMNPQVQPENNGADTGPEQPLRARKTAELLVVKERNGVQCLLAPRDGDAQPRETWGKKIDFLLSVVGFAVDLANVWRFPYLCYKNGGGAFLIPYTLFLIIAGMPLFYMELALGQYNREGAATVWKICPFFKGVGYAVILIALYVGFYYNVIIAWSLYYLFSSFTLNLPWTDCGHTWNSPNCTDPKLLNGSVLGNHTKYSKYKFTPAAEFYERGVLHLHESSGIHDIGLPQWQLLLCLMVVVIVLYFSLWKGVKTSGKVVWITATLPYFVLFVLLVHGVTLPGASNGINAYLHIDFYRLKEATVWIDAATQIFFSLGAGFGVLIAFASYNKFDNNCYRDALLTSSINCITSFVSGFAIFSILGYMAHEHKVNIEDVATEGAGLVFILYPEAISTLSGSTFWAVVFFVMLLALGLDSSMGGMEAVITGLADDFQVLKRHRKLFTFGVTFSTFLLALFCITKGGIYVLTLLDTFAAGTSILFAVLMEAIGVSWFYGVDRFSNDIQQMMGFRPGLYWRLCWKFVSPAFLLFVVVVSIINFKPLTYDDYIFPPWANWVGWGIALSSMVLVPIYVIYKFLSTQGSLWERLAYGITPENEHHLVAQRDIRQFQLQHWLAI
T3 sequence (Q63380 1-617): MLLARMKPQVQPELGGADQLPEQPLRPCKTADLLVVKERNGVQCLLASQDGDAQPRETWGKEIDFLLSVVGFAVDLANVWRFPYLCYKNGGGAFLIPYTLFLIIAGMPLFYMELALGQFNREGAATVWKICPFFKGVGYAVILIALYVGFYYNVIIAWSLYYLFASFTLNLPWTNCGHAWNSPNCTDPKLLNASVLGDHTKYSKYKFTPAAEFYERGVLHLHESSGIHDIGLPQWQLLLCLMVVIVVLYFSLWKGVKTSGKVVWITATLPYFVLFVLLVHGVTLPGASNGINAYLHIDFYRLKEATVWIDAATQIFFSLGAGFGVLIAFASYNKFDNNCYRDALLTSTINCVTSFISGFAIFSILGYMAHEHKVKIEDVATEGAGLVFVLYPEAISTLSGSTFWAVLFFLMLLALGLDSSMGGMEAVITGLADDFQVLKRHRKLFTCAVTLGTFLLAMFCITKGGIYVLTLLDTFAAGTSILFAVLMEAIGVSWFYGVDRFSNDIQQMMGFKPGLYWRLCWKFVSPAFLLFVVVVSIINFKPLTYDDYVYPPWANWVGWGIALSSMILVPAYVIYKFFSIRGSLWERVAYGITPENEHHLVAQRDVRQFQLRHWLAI

COc1ccc(C(CN(C)C)C2(O)CCCCC2)cc1 (racemic) [Venlafaxine, (R,S)-1-(2-(Dimethylamino)-1-(4-methoxyphenyl)ethyl)cyclohexanol, reference compound]
Kp [1, 10]: 3.1 | half-life [1, 10]: 48 min | Kp [1, 11]: 3.4 | half-life [1, 11]: 54 min | AUC [1, 12]: 194 ng·h/mL | AUC(0-inf) [1, 12]: 195 ng·h/mL | Cmax [1, 12]: 408 ng/mL | Tmax [1, 12]: 0 min | Vd [1, 12]: 6.2 L/kg | clearance [1, 12]: 85.6 mL/min/kg | bioavailability ([1]; male, NMRI, mouse, plasma, oral, 10 mg/kg): 48.7% | AUC [1, 13]: 943 ng·h/mL | AUC(0-inf) [1, 13]: 948 ng·h/mL | Cmax [1, 13]: 630 ng/mL | Tmax [1, 13]: 12 min | N-oxide found in brain ([1]; mice, after administration of venlafaxine): only traces | In vitro activity, in words [2]: most potent as inhibitor of serotonine reuptake

COc1ccc(C(C[N+](C)(C)[O-])C2(O)CCCCC2)cc1 (racemic) [Venlafaxine-N-oxide, (R,S)-1-[2-oxido-(dimethylamino)-1-(4-methoxyphenyl)ethyl]-cyclohexanol]
Reduction to venlafaxine in TIM2 [3]: nearly quantitatively reduced to venlafaxine | Serotonine inhibition pIC50 [4]: 4.9 | Noradrenaline binding pKi [5]: <4.5 | Brain/plasma ratio ([1]; i.v. 1 mg/kg): 0.1 | bioavailability ([1]; i.v., 10 mg/kg p.o. against 1 mg/kg i.v.): 23.3% | Conversion in vivo after administration ([1]; mice): reduced to the parent compound | Time after which venlafaxine concentrations in plasma and brain exceed those of the N-oxide ([1]; mice, after i.v. administration of venlafaxine-N-oxide): Approximately one hour | Factor by which venlafaxine concentrations in plasma and brain are higher than those of the N-oxide ([1]; mice, after oral administration of venlafaxine-N-oxide): 10 to 100 | Plasma concentration of Venlafaxine [1, 14]: 22 ng/mL | Plasma concentration of Venlafaxine-N-oxide [1, 14]: 173 ng/mL | Plasma concentration of Venlafaxine [1, 15]: 8.0 ng/mL | Plasma concentration of Venlafaxine-N-oxide [1, 15]: 39 ng/mL | Plasma concentration of Venlafaxine [1, 16]: 0.59 ng/mL | Plasma concentration of Venlafaxine-N-oxide [1, 16]: 7.3 ng/mL | Plasma concentration of Venlafaxine [1, 17]: 0 ng/mL | Plasma concentration of Venlafaxine-N-oxide [1, 17]: 0.16 ng/mL | Plasma concentration of Venlafaxine [1, 18]: 0 ng/mL | Plasma concentration of Venlafaxine-N-oxide [1, 18]: 0 ng/mL | Plasma concentration of Venlafaxine [1, 19]: 72 ng/mL | Plasma concentration of Venlafaxine-N-oxide [1, 19]: 840 ng/mL | Plasma concentration of Venlafaxine [1, 20]: 117 ng/mL | Plasma concentration of Venlafaxine-N-oxide [1, 20]: 183 ng/mL | Plasma concentration of Venlafaxine [1, 21]: 77 ng/mL | Plasma concentration of Venlafaxine-N-oxide [1, 21]: 38 ng/mL | Plasma concentration of Venlafaxine [1, 22]: 3.3 ng/mL | Plasma concentration of Venlafaxine-N-oxide [1, 22]: 0.75 ng/mL | Plasma concentration of Venlafaxine [1, 23]: 0.63 ng/mL | Plasma concentration of Venlafaxine-N-oxide [1, 23]: 0.12 ng/mL | Brain penetration ([1]; mouse, in vivo): hardly penetrates the brain | VD ([1]; mouse, in vivo, iv, 1 mg/kg): 3000.0 mL/kg | clearance ([1]; mouse, in vivo, iv, 1 mg/kg): 46.1 mL/min/kg | t1/2 ([1]; plasma, i.v. 1 mg/kg): 0.8 h | AUC0→end ([1]; plasma, i.v. 1 mg/kg, Tend = 7 hrs): 361.6 ng·h/mL | AUC0→∞ ([1]; plasma, i.v. 1 mg/kg): 361.7 ng·h/mL | Cmax (C0) ([1]; plasma, i.v. 1 mg/kg, extrapolated to T0 (time zero)): 1205.2 (C0)* ng/ml | Cmax ([1]; plasma, p.o. 10 mg/kg): 1040.0 ng/mL | t1/2 ([1]; plasma, p.o. 10 mg/kg): 3.1 h | AUC0→end ([1]; plasma, p.o. 10 mg/kg, Tend = 24 hrs): 841.6 ng·h/mL | AUC0→∞ ([1]; plasma, p.o. 10 mg/kg): 842.2 ng·h/mL | Serotonine binding pKi [6]: 5.5 | Dopamine inhibition pIC50 [7]: 4.5 | Dopamine binding pKi [8]: <4.5 | Noradrenaline inhibition pIC50 [9]: 4.9
